{"source": "patent US20120108538A1", "about": "“SULFATED POLYSACCHARIDES HAVING ANTIPLASMODIAL ACTIVITY AND METHODS AND PRODUCTS FOR IDENTIFYING ANTIPLASMODIAL ACTIVITY” (priority 2009, published 2012)", "key": {"[1]": {"tested_on": "P. falciparum blood stage growth", "experiment": "Growth inhibition assay (GIA), flow cytometry", "format": "cell-based, Plasmodium falciparum", "settings": "for inhibitory activity against P. falciparum blood stage growth in GIA (words) / IC50, inhibition of P. falciparum blood stage growth in GIA: 3D7 parasite line; for IC50, inhibition of P. falciparum blood stage growth in GIA: one cycle of parasite growth", "description": "P. falciparum was cultured as described. Parasites were maintained in culture media of RPMI-HEPES supplemented with 5% (vol/vol) heat inactivated (56° C. 1 hr) human serum (Australian Red Cross Blood Bank),. […] (Gibco), 10mM L-glutamine (Gibco) and 25 mM […]. Parasites were grown at 37° C., 2% hematocrit, O+ human erythrocytes (Australian Red Cross Blood Bank), 1% O2 4% CO2 95% N2 atmosphere. Sorbitol (Sigma-Aldrich) was used to synchronize cultures. 32. Persson K E, Lee C T, Marsh K, Beeson J G (2006) Development and optimization of high-throughput methods to measure Plasmodium falciparum-specific growth inhibitory antibodies. J Clin Microbiol 44: 1665-1673.33. Lambros C, Vanderberg J P (1979) Synchronization of Plasmodium falciparum erythrocytic stages in culture. J Parasitol 65: 418-420.\nHeparin and K5 polysaccharides (Table 1) were tested for inhibitory activity against P. falciparum parasites using high throughput growth inhibitory assays (GlAs). Duplicate 25 μl suspensions of synchronized parasites, 2% parasitemia (32 hr trophozoite), 1% hematocrit with normal or enzymatically treated erythrocyctes, were incubated with inhibitory compounds in 96 well sterile U-bottom plates (Falcon). For humidification, outside wells were filled with sterile human tonicity phosphate-buffered saline (HT-PBS). Plates were incubated as for parasite culture for 44 hrs and analyzed. Parasites were stained with 10 μg/mL ethidium bromide (EtBr) (BioRad), HT-PBS, 1 hr in darkness. Cells were washed and re-suspended in 200 μL HT-PBS. Parasitemia was measured using FACSCalibur flow-cytometry. Data were analyzed using FlowJo (Tree Star), gating on intact erythrocytes and determining parasitemia by EtBr staining. Inhibitory effects of compounds were expressed as percent growth of uninhibited controls (HT-PBS) for each experiment.\nErythrocytes were treated with neuraminidase, chymotrypsin and trypsin as described previously. Erythrocytes were washed with RPMI-HEPES and incubated with neuraminidase ([…], 15 minutes), chymotrypsin (1 mg/mL, 45 minutes) or trypsin (100 μg/mL, […]) at 37° C. Neuraminidase treated bells were washed three times with RPMI-HEPES and chymotrypsin and trypsin treated cells were washed once with culture media and twice with RPMI-HEPES and then used in GIAs. 34. Persson K E, McCallum F J, Reiling L, Lister N A, Stubbs J, et al. (2008) Variation in use of erythrocyte invasion pathways by Plasmodium falciparum mediates evasion of human inhibitory antibodies. J Clin Invest 118: 342-351."}, "MSP1-42 [2]": {"molecular_target": "T1, MSP1-42 (Plasmodium falciparum, UniProt Q8I0U8)", "T1 sequence (Q8I0U8 1327-1699)": "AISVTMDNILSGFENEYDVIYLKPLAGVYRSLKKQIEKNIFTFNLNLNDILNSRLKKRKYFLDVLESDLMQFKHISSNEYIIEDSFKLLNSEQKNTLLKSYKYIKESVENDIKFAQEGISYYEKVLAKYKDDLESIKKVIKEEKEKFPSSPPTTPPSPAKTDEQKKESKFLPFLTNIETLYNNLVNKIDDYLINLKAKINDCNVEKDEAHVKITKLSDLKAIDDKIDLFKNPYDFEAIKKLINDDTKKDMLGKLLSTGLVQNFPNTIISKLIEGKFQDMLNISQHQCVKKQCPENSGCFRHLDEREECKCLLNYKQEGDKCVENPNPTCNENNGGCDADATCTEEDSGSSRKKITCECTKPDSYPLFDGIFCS", "experiment": "Heparin-BSA binding assay", "set-up": "a C-terminal 42kDa (MSP1-42) fragment; made in house; host or cells: E. coli; species or system P. falciparum", "settings": "soluble inhibitor", "description": "(§1) Recombinant merozoite antigens were coated (1 μg/mL) onto 96 well plates (Nunc Maxisorb) in HT-PBS overnight at 4° C. Plates were washed and blocked with 1% casein, 1 hr, room temperature. Plates were incubated with heparin-BSA conjugate with soluble inhibitors and detected with anti-BSA (rabbit) (Sigma-Aldrich) antibodies and anti-rabbit -HRP. Detection was performed with 2,2′-azino-bis(3-ethylbenzthiazoline-6-sulphonic acid) (Sigma-Aldrich) monitored for colour change and measured for absorbance at 405 nm. All incubations were performed in HT-PBS 0.1% casein 0:05% Tween20, 1 hr at room temperature. Plates were washed 3 times HT-PBS 0.05% Tween20 between incubations."}, "P. falciparum schizonts": {"tested_on": "P. falciparum schizonts", "experiment": "Schizont rupture under E64 treatment", "format": "cell-based, Plasmodium falciparum", "settings": "10 uM E64", "description": "Parasites were then incubated until most parasites had developed to late-stage pigmented trophozoites and schizonts (typically 40-42 hours). Early to mid schizont stage parasites (40-44 hours post invasion) were separated from uninfected RBC and early-stage infected RBCs (resulting in >95% purity) with a MAC magnet separation column (Macs Miltenyi Biotec). Purified schizonts were then incubated with 10 uM of E64 (Sigma) for 7-8 hours; Applicant typically used approximately 30 ml of culture media for every 100 ml of starting culture (3% hematocrit, 3% parasitemia). After approximately 6 hours of incubation with E64, treated schizonts were pelleted by centrifugation at 1900 g for 5 minutes. Supernatant was removed and schizonts were resuspended in fresh culture media. Resuspended E64 treated parasites were filtered through a 1.2 um Acrodisc 32 mm syringe filter (Pall Corporation). […]\nTo test the activity of inhibitory compounds on invasion (Supporting Information Table 3), E64 treated schizonts were resuspended and filtered in culture medium without human serum. […] Merozoite:RBCs suspensions containing inhibitors were incubated for one hour and then washed twice with culture medium to remove inhibitors, then resuspended in fresh culture media and incubated and analysed as for standard merozoite invasion assays. […]"}, "[3]": {"tested_on": "purified P. falciparum merozoites invading RBCs", "experiment": "Invasion inhibition assay (IIA) using purified merozoites", "format": "cell-based, Plasmodium falciparum", "description": "Purified merozoites were mixed with uninfected RBCs and cultured using standard conditions in 96 well U-bottom plates at a final volume of 50 μl or 100 μl per well. Specific assay conditions were varied for different test conditions, as described in the Results section of the manuscript. Assays were typically performed under static conditions. Some assays were also performed with agitation of merozoite:RBC suspensions.\nTo test the activity of inhibitory compounds on invasion (Supporting Information Table 3), E64 treated schizonts were resuspended and filtered in culture medium without human serum. A typical merozoite invasion inhibition assay consisted of filtered merozoites (40 ul) added to RBC suspension (5 ul at […]; final concentration 1% hematocrit) and inhibitory compounds (5 ul at 10-times the final concentration required) in 96-well plates. Merozoite:RBCs suspensions containing inhibitors were incubated for one hour and then washed twice with culture medium to remove inhibitors, then resuspended in fresh culture media and incubated and analysed as for standard merozoite invasion assays. A number of compounds were also tested for inhibition of schizont rupture by incubating late stage schizonts (1-2% parasitaemia, 1% haematocrit in 50 ul) with a 1 in 10 dilution of compounds and monitoring the course of schizont rupture at 3 time points over an 8 hour period by flow cytometry."}, "MSP1-42 [4]": {"molecular_target": "T1, MSP1-42", "experiment": "Binding of native merozoite proteins to heparin-agarose beads with soluble inhibitors", "set-up": "proteolytically processed into 83 kDa, 30 kDa, 38 kDa and a C-terminal 42kDa (MSP1-42) fragment; endogenous in cells; host or cells: P. falciparum schizont-stage cultures, Triton X-100 extract; species or system P. falciparum", "settings": "soluble inhibitor 200 μg/mL", "excerpt": "Synchronized schizont stage (40-48 hr, 5-8% parasitemia) cultures were used for protein extraction. Uninfected erythrocytes were lysed with 0.15% saponin (Kodak) on ice for ten minutes. Remaining pellets were washed three times with cold HT-PBS. Protein from schizonts was extracted with 5 times volume of 1% TritonX100 (TX100) (Sigma-Aldrich, Australia), HT-PBS with protease inhibitors (Roche). Insoluble components were pelleted by centrifugation and supernatants collected. Schizont TX100 extracted proteins were bound to heparin-agarose beads (Sigma-Aldrich, Australia) as previously described. Heparin-agarose beads were washed once with 1% casein in PBS, once in PBS, and then blocked with 1% casein in PBS overnight at 4° C. TX100 merozoite protein extracts where incubated with beads containing 0.1% casein and 200 μg/mL of test inhibitor, or PBS as control, overnight at 4° C.; 50 μL of packed beads and 100 μL protein and inhibitor were used or each test sample. Inhibitors used were heparin and CSC. Unbound proteins in the supernatant were collected through Micro Bio-Spin Chromatography Columns (Bio-Rad). After incubation, beads were washed five times with PBS containing 0.1% casein and 1% Triton X-100. Bound proteins were eluted from beads with 50 μL of warmed reducing sample buffer. Bound and unbound proteins were separated by SDS-PAGE under reducing conditions and blotted onto membranes for probing with antibody detection with anti-MSP1 or anti-EBA175. 36. Baum J, Chen L, Healer J, Lopaticki S, Boyle M, et al. (2009) Reticulocyte-binding protein homologue 5—an essential adhesin involved in invasion of human erythrocytes by Plasmodium falciparum: Int J Parasitol 39: 371-380."}, "lactoferrin": {"molecular_target": "T2, lactoferrin (Homo sapiens, UniProt P02788)", "T2 construct": "purchased", "T2 sequence (P02788 20-710, species assumed)": "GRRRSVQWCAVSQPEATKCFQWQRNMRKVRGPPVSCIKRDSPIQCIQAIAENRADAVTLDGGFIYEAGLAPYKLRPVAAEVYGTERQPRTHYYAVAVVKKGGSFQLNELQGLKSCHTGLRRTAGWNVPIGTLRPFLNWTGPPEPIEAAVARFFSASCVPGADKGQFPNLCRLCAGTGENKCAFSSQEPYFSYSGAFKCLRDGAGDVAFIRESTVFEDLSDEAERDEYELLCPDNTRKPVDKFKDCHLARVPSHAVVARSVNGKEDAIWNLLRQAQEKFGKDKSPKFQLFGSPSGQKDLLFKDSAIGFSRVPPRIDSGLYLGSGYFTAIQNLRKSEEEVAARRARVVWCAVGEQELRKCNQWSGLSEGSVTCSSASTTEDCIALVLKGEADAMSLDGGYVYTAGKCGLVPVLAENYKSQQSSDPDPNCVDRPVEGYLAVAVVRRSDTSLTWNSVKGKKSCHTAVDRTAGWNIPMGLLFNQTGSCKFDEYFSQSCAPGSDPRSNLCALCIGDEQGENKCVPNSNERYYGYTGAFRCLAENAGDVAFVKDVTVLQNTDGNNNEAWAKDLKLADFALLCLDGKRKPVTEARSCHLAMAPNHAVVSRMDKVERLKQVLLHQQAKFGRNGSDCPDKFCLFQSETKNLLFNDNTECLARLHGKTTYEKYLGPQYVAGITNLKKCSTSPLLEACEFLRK", "experiment": "Heparin-BSA binding assay (positive control protein)", "settings": "data not shown", "description": "as §1"}}, "note": "“Also recorded” adds a separate entry of the source. Ends that are not written are not given here."}
{"compound": "de-N de-O-sulfated heparin [de-N/O-sulfated heparin]", "values": [{"measurement": "inhibitory activity against P. falciparum blood stage growth in GIA (words)", "setting": "[1]", "value": "loss of inhibitory activity"}, {"measurement": "inhibitory activity against P. falciparum blood stage growth in GIA (words)", "setting": "[1]; listed as Completely desulfated heparin", "value": "no activity"}, {"measurement": "inhibition of heparin-BSA binding to recombinant MSP1-42", "setting": "MSP1-42 [2]", "value": "inhibition"}]}
{"compound": "CC(C)C[C@H](NC(=O)[C@H]1O[C@@H]1C(=O)O)C(=O)NCCCCN=C(N)N", "note": "(relative stereo) [E64, trans-Epoxysuccinyl-L-leucylamido(4-guanidino)butane]", "values": [{"measurement": "effect on schizont rupture / merozoite release", "setting": "P. falciparum schizonts", "value": "inhibiting rupture"}, {"measurement": "effect on invasive capacity of merozoites", "setting": "[3]; merozoites incubated with E64", "value": "did not affect"}]}
{"compound": "chondroitin sulfate D [CSD]", "values": [{"measurement": "inhibitory activity against P. falciparum blood stage growth in GIA (words)", "setting": "[1]", "value": "not inhibitory"}]}
{"compound": "de-2-O-sulfated heparin", "values": [{"measurement": "inhibitory activity against P. falciparum blood stage growth in GIA (words)", "setting": "[1]", "value": "reduced activity"}, {"measurement": "IC50, inhibition of P. falciparum blood stage growth in GIA", "setting": "[1]", "value": 123, "unit": "µg/mL"}]}
{"compound": "chondroitin sulfate E [CSE]", "values": [{"measurement": "inhibition of different P. falciparum lines", "setting": "[1]; 3D7, W2mef, D10, E8B, XIE, HCS3, SA-dependent and SA-independent invasion", "value": "inhibited to similar levels"}, {"measurement": "IC50, inhibition of P. falciparum blood stage growth in GIA", "setting": "[1]", "value": 26.7, "unit": "µg/mL"}]}
{"compound": "chondroitin sulfate C [CSC]", "values": [{"measurement": "inhibitory activity against P. falciparum blood stage growth in GIA (words)", "setting": "[1]", "value": "non-inhibitory; also recorded: not inhibitory"}, {"measurement": "inhibition of native MSP1-42 binding to heparin-agarose beads", "setting": "MSP1-42 [4]", "value": "not"}, {"measurement": "inhibition of lactoferrin binding to heparin-BSA", "setting": "lactoferrin", "value": "not"}]}
{"compound": "fucoidan", "values": [{"measurement": "IC50, inhibition of P. falciparum blood stage growth in GIA", "setting": "[1]", "value": 38, "unit": "µg/mL"}]}
{"compound": "de-6-O-sulfated heparin", "values": [{"measurement": "inhibitory activity against P. falciparum blood stage growth in GIA (words)", "setting": "[1]", "value": "reduced activity"}, {"measurement": "IC50, inhibition of P. falciparum blood stage growth in GIA", "setting": "[1]", "value": 373, "unit": "µg/mL"}, {"measurement": "inhibition of heparin-BSA binding to recombinant MSP1-42", "setting": "MSP1-42 [2]", "value": "inhibition"}, {"measurement": "inhibition of native MSP1-42 binding to heparin-agarose beads", "setting": "MSP1-42 [4]", "value": "not"}, {"measurement": "inhibition of native MSP1-42 binding to heparin-agarose beads", "setting": "MSP1-42 [4]; listed as de-60-sulfated", "value": "unable to inhibit binding"}]}
{"compound": "VFAEFLPLFSKFGSRMHILK [AMA1-binding peptide]", "values": [{"measurement": "inhibition of merozoite invasion in IIA", "setting": "[3]", "value": "effectively inhibited merozoite invasion"}]}
{"compound": "C=C1[C@@H](C)[C@H]2[C@H](Cc3ccccc3)NC(=O)[C@]23[C@H](OC(C)=O)/C=C/[C@@](C)(O)C(=O)[C@@H](C)C/C=C/[C@H]3[C@@H]1O", "note": "[cytochalasin D]", "values": [{"measurement": "inhibition of merozoite invasion in IIA", "setting": "[3]", "value": "effectively inhibited merozoite invasion"}]}
{"compound": "chondroitin sulfate B-2,4-di-sulfated [CSB-2,4-OS]", "values": [{"measurement": "inhibitory activity against P. falciparum blood stage growth in GIA (words)", "setting": "[1]", "value": "not inhibitory"}]}
{"compound": "O=C(O)CN(CCN(CC(=O)O)CC(=O)O)CC(=O)O", "note": "[EDTA]", "values": [{"measurement": "inhibition of merozoite invasion in IIA", "setting": "[3]", "value": "inhibited invasion"}]}
{"compound": "dextran sulfate", "values": [{"measurement": "IC50, inhibition of P. falciparum blood stage growth in GIA", "setting": "[1]", "value": 37, "unit": "µg/mL"}]}
{"compound": "de-N-sulfated heparin", "values": [{"measurement": "inhibitory activity against P. falciparum blood stage growth in GIA (words)", "setting": "[1]", "value": "no activity"}, {"measurement": "inhibitory activity against P. falciparum blood stage growth in GIA (words)", "setting": "[1]; listed as de-N-sulfated", "value": "loss of inhibitory activity"}, {"measurement": "inhibition of native MSP1-42 binding to heparin-agarose beads", "setting": "MSP1-42 [4]", "value": "not"}, {"measurement": "inhibition of native MSP1-42 binding to heparin-agarose beads", "setting": "MSP1-42 [4]; listed as de-N-sulfated", "value": "unable to inhibit binding"}]}
{"compound": "chondroitin sulfate B-2-6-di-sulfated [CSB-2,6-OS]", "values": [{"measurement": "inhibitory activity against P. falciparum blood stage growth in GIA (words)", "setting": "[1]", "value": "some inhibitory activity"}]}
{"compound": "CO[C@H]1O[C@H](COS(=O)(=O)O)[C@@H](O[C@@H]2O[C@@H](C(=O)O)[C@@H](O[C@H]3O[C@H](COS(=O)(=O)O)[C@@H](O[C@@H]4O[C@H](C(=O)O)[C@@H](O[C@H]5O[C@H](COS(=O)(=O)O)[C@@H](O)[C@H](O)[C@H]5NS(=O)(=O)O)[C@H](O)[C@H]4O)[C@H](OS(=O)(=O)O)[C@H]3NS(=O)(=O)O)[C@H](O)[C@H]2OS(=O)(=O)O)[C@H](O)[C@H]1NS(=O)(=O)O", "note": "[Fondaparinux]", "values": [{"measurement": "IC50", "setting": "[1]; Plasmodium falciparum, read-out: IC50 against Plasmodium falciparum invasion", "value": "~100", "unit": "µg/mL"}]}
